The subject of data set [1] is Bovine viral diarrhea virus 1. The experiment in a line: Antiviral activity against Bovine viral diarrhea virus 1. Format: functional, organism-based. Particulars: Bovine viral diarrhea virus isolates and strains.
In the next data set the test system is Hepatitis C virus. Kind of data set: Antiviral activity against hepatitis C virus replication. Type of data set: functional, organism-based, Hepacivirus hominis.
The species entered for a further data set is Homo sapiens. The experiment in a line: Metabolic stability in human plasma after 1 hr. Format: ADME, organism-based.
Another data set concerns Rhesus monkey. Kind of data set: Metabolic stability in monkey plasma after 1 hr. Type of data set: ADME, Macaca mulatta.
A short description of data set [2]: Metabolic stability in rat plasma after 1 hr. Format: ADME, organism-based. The note with it: read-out: Stability.

The EC50 is the concentration that produces a half-maximal response.

Each structure is given as a SMILES string.

Regarding `CN(NS(C)(=O)=O)c1ncnc2c1ncn2[C@@H]1O[C@@H]2OP(=O)(OCCSC(=O)C(C)(C)C)O[C@H]2[C@@]1(C)O` (some centres undefined), the EC50 came to 245 nM in data set [1] and 145 nM in the data set with Hepatitis C virus.
On to `CN(NS(C)(=O)=O)c1nc(N)nc2c1ncn2[C@@H]1O[C@@H]2OP(=O)(OCOC(=O)C(C)(C)C)O[C@H]2[C@@]1(C)O` (some centres undefined), for which the values for the concentration for a half-maximal effect (EC50) (in data set [1]; in the data set on Hepatitis C virus) were 223 nM and 92 nM, respectively.
For `CN(NS(C)(=O)=O)c1ncnc2c1ncn2[C@@H]1O[C@@H]2OP(=O)(OCOC(=O)C(C)(C)C)O[C@H]2[C@@]1(C)O` (some centres undefined), in that order: 962 nM and 414 nM.
On to `CC(C)OC(=O)OCOP1(=O)O[C@H]2O[C@@H](n3cnc4c(N(C)NS(C)(=O)=O)ncnc43)[C@](C)(O)[C@@H]2O1` (some centres undefined), for which the concentration for a half-maximal effect (EC50) came out at 420 nM in data set [1] and 463 nM in the data set with Hepatitis C virus.
For `CN(NS(C)(=O)=O)c1nc(N)nc2c1ncn2[C@@H]1O[C@@H]2OP(=O)(OCCSC(=O)C(C)(C)C)O[C@H]2[C@@]1(C)O` (some centres undefined), in that order: 33 nM and 22 nM.
The matching figures for `CCCOCC(C)(C)C(=O)SCCOP1(=O)O[C@H]2O[C@@H](n3cnc4c(N(C)NS(C)(=O)=O)ncnc43)[C@](C)(O)[C@@H]2O1` (some centres undefined): 110 nM and 39 nM.
For `CC(C)OC(=O)OCOP1(=O)O[C@H]2O[C@@H](n3cnc4c(N(C)NS(C)(=O)=O)nc(N)nc43)[C@](C)(O)[C@@H]2O1` (some centres undefined), the EC50 in data set [1] turned out to be 216 nM; in the data set with Hepatitis C virus, 163 nM.
Consider `CCCOC(C)(C)C(=O)SCCOP1(=O)O[C@H]2O[C@@H](n3cnc4c(N(C)NS(C)(=O)=O)nc(N)nc43)[C@](C)(O)[C@@H]2O1` (some centres undefined), for which the EC50 in data set [1] worked out at 16 nM; in the data set with Hepatitis C virus, 8 nM. The Stability result in the data set filed under Homo sapiens and in the data set with Rhesus monkey was “Stable” throughout. In addition, in data set [2], the remaining at 1 h is 4%.
